Reference: PMC6778101 (Nature Communications, 2019)
Read-outs that look alike come from different tables or passages of the source. Ends that are not written are not given here.

Assays:
Type in all cases: cell-based, Escherichia coli
[1] = test system: E. coli K-12 BW25113 carrying ASKA plasmids; assay: microbe, parasite or virus in culture; details: MS medium + 10 µg mL−1 CHL + 500 µM IPTG, 5 × 10^5 cells, 16–18 h, 37 °C
Description: Bacterial gene amplification generates extensive genetic variation that can provide drug resistance[37],[38]. As gene amplification events tend to be genetically unstable and reduce bacterial fitness, they are transient in nature. Using the ASKA library, which comprises each E. coli ORF cloned into an expression vector[40], we have conducted a global survey to evaluate whether artificially amplified genes provide resistance to any of the 14 AMPs and 11 antibiotics tested. As chloramphenicol (CHL) was used as a selection marker for the ASKA plasmid, this antibiotic was not tested in this screen. E. coli K-12 BW25113 cells were transformed with the pooled plasmids of the ASKA library, and the genetically mixed populations were exposed to increasing levels of AMP or antibiotic stresses, respectively. In all cases, the employed AMP or antibiotic dosages were above the MIC of the wild type. For each drug, we identified the MIC provided in the pooled ASKA plasmid library, and compared it to the MIC of the wild-type strain carrying the empty ASKA plasmid.
The ASKA library (a complete set of E. coli K-12 ORF archive) includes every E. coli ORF cloned into an expression vector (pCA24N)[65]. Prior to screening, the ASKA plasmid collection was pooled and transformed into E. coli K-12 BW25113 strain[66]. The plasmid pool was created by pooling an equal aliquot of cells, each carrying different members of the ASKA library, followed by plasmid miniprep. Next, the plasmid pool was electroporated into E. coli K-12 BW25113 competent cells. […] For the MICs measurements 500 000 cells were inoculated in each well which represents ~100 times coverage of each library member. […] Prior to the measurements the cell population containing the pooled overexpression library or the control strain containing the empty vector were grown in three replicates in LB medium supplemented with 20 µg/mL CHL. As the culture reached high density (i.e., OD600 > 0.8), expression of the plasmid was induced by 50 µM IPTG for 1 h. Following induction, 5 × 10^5 bacterial cells were inoculated in three replicates into each well of the 96-well plate and incubated for 16–18 h at 37 °C. Following incubation the MIC values were determined by measuring optical densities in a plate reader (Biotek Synergy).

E.coli K-12 BW25113 = details: for MIC (freshly prepared AMP): plates inoculated immediately; for MIC (pre-incubated AMP): plates pre-incubated 72 hours before inoculation
Method: (§1) MICs were determined using a standard serial broth dilution technique. Briefly, 11-step serial dilutions were prepared in 96-well microtiter plates with three replicates per strain and antimicrobial compound. Each experiment was repeated at least twice. 5 × 10^5 cells/mL were inoculated into each well, and the plates were incubated at 30 °C in case of E. coli K-12 BW25113, and its antibiotic and AMP-adapted lines, or 37 °C in case of the other bacterial species. Plates were shaken at 300 r.p.m. during incubation for 24 and 18 h, respectively. Cell growth was monitored by measuring the optical density (OD600 value, Biotek Synergy 2 microplate reader was used for this purpose). […] Relative MIC was calculated as follows: MICrelative = MICevolved/MICcontrol.
Supplementary Table 7- Effect of incubation time on the minimum inhibitory concentration (MIC) of AMPs. We tested whether the prolonged incubation time can affect the MIC of AMPs. To test this, two sets of AMP containing MIC plates were prepared in parallel. The first set was immediately inoculated with E.coli K-12 BW25113, while the second set was pre-incubated 72 hours before inoculation with the […]
observed in the MIC between freshly prepared and pre-incubated plates. […]

E. coli K-12 BW25113 [2] = assay: microbe, parasite or virus in culture; details: starting wild-type strain of the evolution experiment; broth dilution, MS medium, 5 × 10^5 cells/mL, 30 °C, 24 h, MIC = OD600 < 0.05
Description: Unless otherwise indicated, Minimal Salt (MS) medium was used in all experiments, including the laboratory evolution experiments. In line with previous, methodologically relevant laboratory evolution studies, the physical conditions (including the medium) were the same during the course of laboratory evolution and all forthcoming assays on the resulting resistant lines (e.g. MIC measurements). We previously optimized this medium for studying AMPs (1 g L^−1 (NH4)2SO4, 3 g L^−1 KH2PO4 and 7 g L^−1 K2HPO4 supplemented with 0.1 mM MgSO4, 0.54 µg mL^−1 FeCl3, 1 µg mL^−1 thiamine hydrochloride, 0.2% Casamino acids and 0.2% glucose)[19]. This medium is highly controlled and provides a reproducible environment for experimental evolution experiments. All components were obtained from Sigma-Aldrich.
as §1, with “Plates were shaken at 300 r.p.m. during incubation for 24 and 18 h, respectively.” left out

E. coli K-12 BW25113 [3] = assay: Laboratory evolution of resistance, MIC fold change of adapted lines; details: ~120 generations under increasing drug concentration
Description: Our first goal was to study resistance evolution against a set of AMPs and antibiotics. We have followed established protocols with minor modifications to evolve bacterial populations under controlled laboratory conditions[19],[20]. The applied protocol aims to maximize the level of drug resistance in the evolving populations achieved during a fixed time period. We have initiated a laboratory evolution experiment, starting with a single clone of Escherichia coli K-12 BW25113 (abbreviated as E. coli K-12 BW25113). Parallel evolving populations were exposed to increasing concentrations of one of 14 AMPs (Supplementary Table 1). Peptides were chosen based on the following criteria: diverse sources (synthetic/natural), different putative mechanisms of action, structural diversity, and clinical relevance. Another set of populations were exposed to one of 12 clinically relevant antibiotics (Supplementary Table 2), using the same protocol. Accordingly, we have propagated 10 independent populations in the presence of each AMP or antibiotic for ∼120 generations. We isolated a single, representative clone from each population, resulting in 140 AMP-adapted lines and 120 antibiotic-adapted lines. Throughout the paper, we compare the level of resistance in the evolved lines to the corresponding wild-type strain by measuring changes in the drugs’ minimum inhibitory concentrations (MIC).
The evolutionary protocol was designed to avoid population extinction and to ensure that populations with the highest level of resistance were propagated further. Starting with a subinhibitory drug concentration (Supplementary Data 8), resulting in ~50% growth inhibition, 10 parallel populations per drug were allowed to grow in Minimal Salts medium for 72 h and 300 r.p.m. E. coli K-12 BW25113 and E. coli mutD5 populations were incubated at 30 °C, while E. coli ATCC 25922, S. enterica LT2, K. pneumonia ATCC 10031, and A. baumannii ATCC 17978 were incubated at 37 °C. […] Prior to each transfer, cell growth was monitored by measuring the optical density at 600 nm (OD600 value, Biotek Synergy 2 microplate reader). Only populations with the highest drug concentration (and reaching OD600 > 0.2) were selected for further evolution. A chess-board layout was used on the plate to monitor potential cross-contamination events. […] E. coli mutD5 was adapted to TPII, also in 10 parallel evolving populations.
as §1

[4] = time allowed for bacterial growth 48 hours
[5] = time allowed for bacterial growth 24 hours
[6] = time allowed for bacterial growth 72 hours

For `CC[C@H](C)[C@H](NC(=O)[C@H](CCCCN)NC(=O)[C@H](CCC(=O)O)NC(=O)[C@H](CCCCN)NC(=O)[C@H](CO)NC(=O)[C@H](CCCCN)NC(=O)[C@H](CCCNC(=N)N)NC(=O)[C@H](Cc1ccccc1)NC(=O)[C@H](Cc1ccccc1)NC(=O)[C@H](CC(=O)O)NC(=O)CNC(=O)[C@H](CC(C)C)NC(=O)[C@@H](N)CC(C)C)C(=O)NCC(=O)N[C@@H](CCCCN)C(=O)N[C@@H](CCC(=O)O)C(=O)N[C@@H](Cc1ccccc1)C(=O)N[C@@H](CCCCN)C(=O)N[C@@H](CCCNC(=N)N)C(=O)N[C@H](C(=O)N[C@H](C(=O)N[C@@H](CCC(N)=O)C(=O)N[C@@H](CCCNC(=N)N)C(=O)N[C@H](C(=O)N[C@@H](CCCCN)C(=O)N[C@@H](CC(=O)O)C(=O)N[C@@H](Cc1ccccc1)C(=O)N[C@@H](CC(C)C)C(=O)N[C@@H](CCCNC(=N)N)C(=O)N[C@@H](CC(N)=O)C(=O)N[C@@H](CC(C)C)C(=O)N[C@H](C(=O)N1CCC[C@H]1C(=O)N[C@@H](CCCNC(=N)N)C(=O)N[C@H](C(=O)N[C@@H](CCC(=O)O)C(=O)N[C@@H](CO)C(=O)O)[C@@H](C)O)C(C)C)[C@@H](C)CC)C(C)C)[C@@H](C)CC` [LL37, cathelicidin antimicrobial peptide LL-37], the “MIC value of E. coli K-12 BW25113 carrying the empty plasmid of the ASKA library” value ([1]; Replicate 1) was 14.45 µg/mL, the “MIC value of E. coli K-12 BW25113 carrying the pooled plasmids of the ASKA library” value ([1]; Replicate 1) was 14.45 µg/mL and the “MIC value of E. coli K-12 BW25113 carrying the empty plasmid of the ASKA library” value ([1]; Replicate 2) was 12.04 µg/mL. The “MIC value of E. coli K-12 BW25113 carrying the pooled plasmids of the ASKA library” value ([1]; Replicate 2) was 17.34 µg/mL, the “MIC value of E. coli K-12 BW25113 carrying the empty plasmid of the ASKA library” value ([1]; Replicate 3) was 14.45 µg/mL and the “MIC value of E. coli K-12 BW25113 carrying the pooled plasmids of the ASKA library” value ([1]; Replicate 3) was 14.45 µg/mL. For the same molecule, the “MIC (freshly prepared AMP)” value (E.coli K-12 BW25113; [4]) was 17.4 µg/mL, the “MIC (pre-incubated AMP)” value (E.coli K-12 BW25113; [5]) was 17.4 µg/mL and the “MIC (pre-incubated AMP)” value (E.coli K-12 BW25113; [4]) was 17.4 µg/mL. The “MIC (pre-incubated AMP)” value (E.coli K-12 BW25113; [6]) was 17.4 µg/mL and the MIC (E. coli K-12 BW25113 [2]) was 100 µg/mL.

With “RFRPPIRRPPIRPPFYPPFRPPIRPPIFPPIRPPFRPPLGPFP [BAC5, Bactenecin 5]” the “MIC value of E. coli K-12 BW25113 carrying the empty plasmid of the ASKA library” value ([1]; Replicate 1) was 5.79 µg/mL, the “MIC value of E. coli K-12 BW25113 carrying the pooled plasmids of the ASKA library” value ([1]; Replicate 1) was 4.82 µg/mL and the “MIC value of E. coli K-12 BW25113 carrying the empty plasmid of the ASKA library” value ([1]; Replicate 2) was 5.79 µg/mL. The “MIC value of E. coli K-12 BW25113 carrying the pooled plasmids of the ASKA library” value ([1]; Replicate 2) was 5.79 µg/mL, the “MIC value of E. coli K-12 BW25113 carrying the empty plasmid of the ASKA library” value ([1]; Replicate 3) was 5.79 µg/mL and the “MIC value of E. coli K-12 BW25113 carrying the pooled plasmids of the ASKA library” value ([1]; Replicate 3) was 4.82 µg/mL. The “MIC (freshly prepared AMP)” value (E.coli K-12 BW25113; [5]) was 14.5 µg/mL, the “MIC (freshly prepared AMP)” value (E.coli K-12 BW25113; [4]) was 14.5 µg/mL and the “MIC (freshly prepared AMP)” value (E.coli K-12 BW25113; [6]) was 14.5 µg/mL. For the same molecule, the “MIC (pre-incubated AMP)” value (E.coli K-12 BW25113; [5]) was 14.5 µg/mL, the “MIC (pre-incubated AMP)” value (E.coli K-12 BW25113; [4]) was 14.5 µg/mL and the “MIC (pre-incubated AMP)” value (E.coli K-12 BW25113; [6]) was 14.5 µg/mL. For the same molecule, the MIC (E. coli K-12 BW25113 [2]) was 7 µg/mL.

“RRRPRPPYLPRPRPPPFFPPRLPPRIPPGFPPRFPPRFP [PR39]” was tested, and the “MIC value of E. coli K-12 BW25113 carrying the empty plasmid of the ASKA library” value ([1]; Replicate 1) was 5.79 µg/mL, the “MIC value of E. coli K-12 BW25113 carrying the pooled plasmids of the ASKA library” value ([1]; Replicate 1) was 5.79 µg/mL and the “MIC value of E. coli K-12 BW25113 carrying the empty plasmid of the ASKA library” value ([1]; Replicate 2) was 5.79 µg/mL. For the same molecule, the “MIC value of E. coli K-12 BW25113 carrying the pooled plasmids of the ASKA library” value ([1]; Replicate 2) was 5.79 µg/mL, the “MIC value of E. coli K-12 BW25113 carrying the empty plasmid of the ASKA library” value ([1]; Replicate 3) was 5.79 µg/mL and the “MIC value of E. coli K-12 BW25113 carrying the pooled plasmids of the ASKA library” value ([1]; Replicate 3) was 5.79 µg/mL. For the same molecule, the MIC (E. coli K-12 BW25113 [2]) was 5 µg/mL.

With “TSSPPAAVVVRRRRRRRRRRRRRRRRRRR [PROA, protamine, cationic AMP purchased from Sigma-Aldrich]” the “MIC value of E. coli K-12 BW25113 carrying the empty plasmid of the ASKA library” value ([1]; Replicate 1) was 126.51 µg/mL, the “MIC value of E. coli K-12 BW25113 carrying the pooled plasmids of the ASKA library” value ([1]; Replicate 1) was 126.51 µg/mL and the “MIC value of E. coli K-12 BW25113 carrying the empty plasmid of the ASKA library” value ([1]; Replicate 2) was 126.51 µg/mL. For the same molecule, the “MIC value of E. coli K-12 BW25113 carrying the pooled plasmids of the ASKA library” value ([1]; Replicate 2) was 36.15 µg/mL, the “MIC value of E. coli K-12 BW25113 carrying the empty plasmid of the ASKA library” value ([1]; Replicate 3) was 442.78 µg/mL and the “MIC value of E. coli K-12 BW25113 carrying the pooled plasmids of the ASKA library” value ([1]; Replicate 3) was 442.78 µg/mL. For the same molecule, the “resistance in evolved lines after laboratory evolution (in words)” value (E. coli K-12 BW25113 [3]) was “isolated resistant mutants” and the MIC (E. coli K-12 BW25113 [2]) was 310 µg/mL.
